Laboratory results published in patent US11897910B2, “Mito-honokiol compounds and methods of synthesis and use thereof” (The Medical College of Wisconsin, Inc., priority 2015, dated 2024).

Key:
DMS-273 cells = experiment: Cell proliferation assay (IncuCyte); type: cell-based; conditions: Homo sapiens
Description: (§1) For the cell proliferation assay, cells were seeded onto 96-well tissue culture plates at 2-3,000 cells per well. Twenty-four hours after seeding, treatment group cells were exposed to various concentrations of HNK for 48 hours, and control group cells received fresh medium. The plate was incubated at 37° C. and 5% CO2 and monitored in IncuCyte (Essen Bioscience, Ann Arbor, MI). Data analysis was conducted using IncuCyte […] software. All assays were performed in triplicate. Next, we examined the anticancer effects of Mito-HNK compared to HNK in vitro. Various doses of HNK and Mito-HNK were treated in either H2030-BrM3 or DMS-273 cells, and the antiproliferative effects were monitored with an IncuCyte Live-Cell Imaging Analyzer. […] Furthermore, we examined the anti-invasive effects of Mito-HNK in H2030-BrM3 and DMS-273 cells via a Boyden chamber invasion assay. Both cells were treated with vehicle control (DMSO), HNK (20 μM), and Mito-HNK (0.2 μM) for 36 hours, and invaded cells were determined.

H2030-BrM3 cells = experiment: Cell proliferation assay (IncuCyte); type: cell-based; conditions: Homo sapiens
Description: as §1

[1] = tested on: H2030-BrM3 and DMS-273 orthotopic lung tumors; experiment: Orthotopic lung cancer model; type: in vivo, mice
Description: DM273 cells (1×10^6 cells/50 μg of growth factor reduced Matrigel in 50 μL of RPMI-1640 medium) were injected into the left lung. One week after injection, mice were treated with the same dose of HNK or Mito-HNK (7.5 μmol/kg) or vehicle (corn oil) by oral gavage five times per week for three weeks). […] Five-week-old male athymic nude mice were used for experiments. Mice were anesthetized with isoflurane and placed in the right lateral decubitus position. A total of 1×10^6 H2030-BrM3 cells in 50 μg of growth factor reduced Matrigel (BD Biosciences, San Jose, CA) in 50 μL of RPMI-1640 medium were injected through the left rib cages of mice into their left lungs, as previously described (Nguyen et al., 2009). […] Tumor growth and metastases phenotypes were monitored during this time by bioluminescence with an Xenogen IVIS-200. Mice were sacrificed at the endpoint; tissues were extracted, freshly frozen, and OCT-fixed or formalin-fixed with 10% zinc for later western blot and immunohistochemistry (IHC) analyses.

MiaPaCa-2 cells = experiment: Intracellular ATP, combination with 2-deoxyglucose; type: cell-based, human; conditions: combined with 2-deoxyglucose (2-DG)
Source text: FIG. 4. Synergistic depletion of intracellular ATP in MiaPaCa-2 cells by combination of 2-deoxyglucose (2-DG) and honokiol (HNK) and mito-honokiol (Mito-HNK). The data were obtained on the human pancreatic cancer MiaPaCa-2 cell line. […] In one embodiment, the mito-honokiols of the present invention may be also used in combination with standard-of-care chemotherapeutics or with ionizing radiation to treat resistant cancer cells.

STAT3 phosphorylation = experiment: PathScan RTK signaling array; type: cell-based; conditions: DMS-273 cells; HNK 10 μM and 20 μM, Mito-HNK 0.2 μM, six hours
Description: H2030-BrM3 and DMS-273 cells treated with control DMSO and various doses of HNK and Mito-HNK for four hours were lysed with 200 μl lysis buffer containing proteinase inhibitor cocktails (Cell Signaling Technology, Danvers, MA), sheared 10 times with a 28-gauge needle, spun at 16,000×g for 30 min, and normalized by protein concentration as determined by the Bradford method. Normalized lysate was resolved in a PathScan RTK Signaling Array, and the signaling array was examined by a Li-COR Odyssey infrared imaging system (Li-COR Biosciences-Biotechnology, Lincoln, NE).
For the RTK signaling array, we treated DMS-273 cells with two different doses of HNK (10 μM and 20 μM) and Mito-HNK (0.2 μM) for six hours.

[2] = tested on: human MiaPaCa-2 pancreatic cancer cells; experiment: Antiproliferative effect on pancreatic cancer cells; type: cell-based
Source text: FIG. 3. Comparison of anti-proliferative effects of honokiol (HNK), mito-honokiol (Mito-HNK) and bis-mito-honokiol (Mito-bis-HNK) on human MiaPaCa-2 pancreatic cancer cells.
FIG. 15A-15F. Effects of mito-honokiol alone or in combination with 2-deoxyglucose on pancreatic cells. […] Further, the combining the mito-honokiols of the present invention with antiglycolytic agents (e.g. 2-deoxyglucose) reduced the rate of proliferation of pancreatic cancer cells than either treatment alone, as shown for a number of different concentrations in FIG. 15C-F.
The inventors also compared the antiproliferative activity of mito-honokiol analogs to honokiol using human MiaPaCa-2 pancreatic cancer cells (FIG. 3).

UACC-62-WT cells [3] = experiment: Melanoma cell proliferation monitored in real time; type: cell-based, human
Description: (§2) UACC-62-WT cells (A) or UACC-62-R cells (B) were treated with PLX4720 as indicated. Cell proliferation was monitored in real time with the continuous presence of indicated treatments until the end of each experiment. (C) Representative images shown are the segmentation of phase contrast images (segmentation mask illustrated in black). (D) The cell confluence (as control groups reach 95% confluency) is plotted against concentration of PLX4720 inhibitor. Dashed lines represent the fitting curves used to determine the IC50 values. […] (F) The effect of Mito-MGN (0.2 μM) on mitochondrial complex I and II activities (oxygen consumption rate, OCR) is shown for wild-type (red) and resistant UACC-62 (blue) melanoma cells.
(§3) UACC-62-WT cells (A) or UACC-62-R cells (B) were treated with Mito-MGN as indicated. Cell proliferation was monitored in real time with the continuous presence of indicated treatments until the end of each experiment. (C) Representative images shown are the segmentation of phase contrast images (segmentation mask illustrated in black). (D) The cell confluence (as control groups reach 95% confluency) is plotted against Mito-MGN concentration. Dashed lines represent the fitting curves used to determine the IC50 values.
(§4) To establish PLX4720-resistant melanoma cell line, UACC-62 cells (ATCC) were continuously exposed to increasing concentrations of PLX4720 (1-20 μM) for six months until the logarithmic growth resumed. PLX4720-containing media were replaced twice a week. Resistant cell line (UACC-62R) was maintained in routine culture in the presence of 20 μM PLX4720. FIGS. 21A and 21B show the effect of PLX4720 on proliferation of UACC-62-WT and UACC-62-R cells.
(§5) FIGS. 22A and 22B show the effect of Mito-magnolol on proliferation of UACC-62-WT and UACC-62-R cells. Cell proliferation was monitored in real time for cells incubated continuously under treatment conditions as shown.

[4] = biological target: mitochondrial complex I in UACC-62-R cells; experiment: Seahorse XF96 bioenergetics (OCR, complex I-mediated respiration, glycolysis); type: cell-based, human
Description: (§6) Melanoma cells harboring BRAF oncogenic mutations use aerobic glycolysis (the Warburg effect) to meet their energy demands. […] One reason for the acquired resistance to PLX4720 is the adaptive change from glycolysis to OXPHOS.
(§7) We used a Seahorse XF96 Analyzer to measure OCR, a readout of mitochondrial respiration, and […], a surrogate marker for glycolysis, in real time. OCR is measured after adding substrates and inhibitors of complexes I-IV. In preliminary studies, Mito-MGN inhibited complex I activity in both WT and resistant cells (FIG. 21F).

[5] = tested on: mitochondrial complex I in UACC-62-WT cells; experiment: as above; type: cell-based, human
Description: as §6, §7

UACC-62-R cells [6] = experiment: Melanoma cell proliferation monitored in real time; type: cell-based, human; conditions: 0.1-0.3 μM, six days
Description: as §2, §3, §4, §5

UACC-62-R cells [7] = experiment: Hydroethidine oxidation products by HPLC; type: cell-based, human; conditions: 24 h preincubation
Description: (§8) Mito-magnolol stimulates ROS and causes oxidation of mitochondrial antioxidative enzyme in BRAFV600E inhibitor-resistant melanoma cells. UACC-62-WT and UACC-62-R cells were preincubated with Mito-magnolol for 24 h and then treated with hydroethidine. Cell lysates were analyzed by HPLC and the superoxide-specific hydroxylation product (2-OH-E^+) and other two-electron and one-electron oxidation products (E^+ and E^+-E^+) were determined.
(§9) Hydroethidine (HE) was used to measure intracellular O2^⋅− formation. 2-Hydroxyethidium (2-OH-E^+), the diagnostic marker product of O2^⋅−/HE reaction (FIG. 23A) increased in Mito-MGN treated melanoma cells (FIG. 23B). In addition, Mito-MGN induced the iron or peroxidase-dependent oxidation of HE as evidenced by enhanced intracellular formation of E^+-E^+ and E^+ (FIG. 23B).

UACC-62-WT cells [8] = experiment: Hydroethidine oxidation products by HPLC; type: cell-based, human; conditions: 24 h preincubation
Description: as §8, §9

[9] = tested on: mitochondrial Prx3 in WT melanoma cells; experiment: Peroxiredoxin redox status (Western blot); type: cell-based, human; conditions: cytosolic Prx1 largely unaffected
Source text: (§10) (A) Western blot show the redox status of cytosolic (Prx1) and mitochondrial (Prx3) peroxiredoxins. (B) Quantitative analysis of the extent of Prx1 and Prx3 oxidation. Values are mean±SD, n=3. **, P≤0.01. (C) Scheme showing the pathways controlling the redox state and covalent dimer formation of peroxiredoxins in cells.
(§11) Peroxiredoxins (Prx) are abundant endogenous intracellular thiol peroxidases that act as compartment-specific sensors of hydrogen peroxide (H2O2) in mitochondrial (Prx3) and cytosolic (Prx1) compartments (62-64). Prxs rapidly react with H2O2 (k=10^6-10^7 M^−1 s^−1) (64, 65). Prx3 accounts for nearly 90% of mitochondrial peroxidase activity (64, 66).

[10] = tested on: mitochondrial Prx3 in resistant melanoma cells; experiment: Peroxiredoxin redox status (Western blot); type: cell-based, human; conditions: cytosolic Prx1 largely unaffected
Source text: as §10, §11

UACC-62 cells = experiment: TMRE flow cytometry, mitochondrial depolarization; type: cell-based, human; conditions: pilot experiments
Source text: (A) Representative TMRE quantification using flow cytometry. (B) Mean fluorescence intensity (MFI) of TMRE in Mito-MGN-treated and vehicle (V)-treated UACC-62-WT cells. Values are mean±SEM, n=3
Not to be bound by any theory, but it is believed that Mito-MGN-induced ROS halts melanoma proliferation through induction of mitophagy. ROS at high μM concentrations have detrimental effects on lipids, proteins, and DNA, whereas at nM concentrations, ROS exerts potent signaling effects (11, 41, 65). We postulate that OXPHOS inhibition by Mito-MGN increases ROS levels, which in turn stimulates mitophagy. To test this hypothesis, we will use an iterative approach to first measure mitochondrial membrane damage, followed by the parallel examination of molecular markers and phagolysome activation needed for mitophagy. Tetramethylrhodamine ethyl ester (TMRE) is retained in metabolically active mitochondria and released into the cytosol and extracellular space of cells with depolarized/damaged mitochondria (67), as illustrated in our recent paper using related mitochondria-targeted agents (12).

UACC-62-WT cells [11] = experiment: UACC-62-WT orthotopic melanoma xenograft; type: in vivo, mice; conditions: 1 mg injected intratumorally in 50 μL
Description: (A) Representative μCT images on day 58 from UACC-62-WT xenographed (T=tumor) mice treated twice a week with vehicle (left) or 1 mg Mito-MGN (right). Data representative of 2 mice per group. (B) Quantification of tumor volume (mm^3) measured using calipers ex vivo on day 58.
The efficacy of Mito-MGN in a murine model of melanoma was tested using cells sensitive and resistant to BRAF inhibitors as tools to probe the anti-tumor effects of targeted OXPHOS inhibitors.

B16.F10 cells = experiment: B16.F10 orthotopic melanoma model; type: in vivo, mice
Description: (A) Kaplan-Maier survival curves of B16-F10 engrafted mice treated on days 7, 9, 11, 14, 16, & 18 with Mito-MGN [1 mg] or with α-PD-L1 [250 μg]. (B) Tumor size (mm2) over time. (C) Tumor volume measured on day 19. Values are mean±SD, n=4 mice/group. ***, P≤0.001.
T cells were detected using CD3 immunostaining (brown). Arrowheads highlight CD3+ T cells in melanoma (blue cells). Data representative of 4 separate mice.

[12] = Serum toxicity markers (pilot study); conditions: three weekly treatment at 5 mg/kg
[13] = 1 mg/tumor Mito-MGN or 250 μg anti-PD-L1 antibody

C=CCc1ccc(O)c(-c2ccc(O)c(CC=C)c2)c1 [HNK, honokiol]
IC50 (DMS-273 cells): 30 µM
IC50 (H2030-BrM3 cells): 27 µM
tumor growth ([1]; 7.5 μmol/kg oral gavage five times per week for three weeks): did not significantly reduce tumor growth
observable side effects ([1]; H2030-BrM3 and DMS-273 orthotopic models): did not show any observable side effects
cellular ATP levels (MiaPaCa-2 cells): synergize with 2-deoxyglucose (2-DG) in decreasing cellular ATP levels
STAT3 phosphorylation levels (STAT3 phosphorylation): dramatically decreased

C=CCc1ccc(OCCCCCCCCCC[P+](c2ccccc2)(c2ccccc2)c2ccccc2)c(-c2ccc(OCCCCCCCCCC[P+](c3ccccc3)(c3ccccc3)c3ccccc3)c(CC=C)c2)c1 [Bis-Mito-HNK]
antiproliferative potency compared with honokiol ([2]; MiaPaCa-2): more potent than honokiol

CCCS(=O)(=O)Nc1ccc(F)c(C(=O)c2c[nH]c3ncc(Cl)cc23)c1F [PLX4720, reference compound]
cells after six days of treatment (phase contrast images) (UACC-62-WT cells [3]; 10 μM, WT versus resistant cells): considerably fewer WT cells compared to resistant cells

C=CCc1ccc(O)c(-c2cc(CC=C)ccc2OC[P+](c2ccccc2)(c2ccccc2)c2ccccc2)c1.[Br-] [Mito-MGN]
antiproliferative effects ([2]; 1 μM, FIG. 15B): exhibit antiproliferative effects
IC50 ([4]; read-out: IC50 to inhibit complex I-mediated respiration, 1 h treatment, UACC-62-R): 0.66 µM
OXPHOS (OCR) ([4]; resistant cells): significantly inhibiting OXPHOS
glycolysis (SCAR/PPR) ([4]; resistant cells): minimally affected glycolysis
OXPHOS (OCR) ([5]; WT cells): significantly inhibiting OXPHOS
glycolysis (SCAR/PPR) ([5]; WT cells): minimally affected glycolysis
IC50 ([5]; read-out: IC50 to inhibit complex I-mediated respiration, 1 h treatment, UACC-62-WT): 0.35 µM
sensitivity of proliferation (UACC-62-R cells [6]): exquisitely sensitive
sensitivity of proliferation (UACC-62-WT cells [3]; 0.1-0.3 μM, six days): exquisitely sensitive
HE oxidation products 2-OH-E+, E+ and E+-E+ (UACC-62-R cells [7]): significantly higher amount
HE oxidation products 2-OH-E+, E+ and E+-E+ (UACC-62-WT cells [8]): significantly higher amount
oxidation of mitochondrial Prx3 [9]: stimulated the oxidation of mitochondrial Prx3
oxidation of mitochondrial Prx3 [10]: stimulated the oxidation of mitochondrial Prx3
mitochondrial membrane potential (TMRE) (UACC-62 cells): dose dependently decreases mitochondrial membrane potential
tumor size (μCT in vivo and ex vivo excised tumors) (UACC-62-WT cells [11]): potently reduced tumor size
melanoma growth in vivo (B16.F10 cells; [13]): decreased melanoma growth
survival (B16.F10 cells; [13]): increased survival
T cell levels in excised tumors (CD3 immunostaining) (B16.F10 cells; compared to vehicle control tumors): increased T cell levels
efficiency in abrogating tumor progression and size (B16.F10 cells; compared with anti-PD-L1): equal to anti-PD-L1
BUN ([12]; serum, day 19, Mean ± SE, n = 4-5, ref (12-28)): 24.5 ± 1.9 mg/dL
ALT ([12]; serum, day 19, Mean ± SE, n = 4-5, ref (22-77)): 58.7 ± 12.7 IU/L
AP ([12]; serum, day 19, Mean ± SE, n = 4-5, ref (45-222)): 36.7 ± 10.8 IU/L
liver or kidney toxicity [12]: little liver or kidney toxicity
